The results in this text go back to patent publication US12673081B2, “Traditional CHINESE medicine compound composition with immune bidirectional regulation effect and preparation method and applications thereof” (Chenland Nutritionals Inc., priority 2020, dated 2026).

In test [1] the test system is guinea pig model with allergic rhinitis. Description: Allergic rhinitis experiment: symptom observation (nose scratching, sneezing, symptom score) after OVA nasal instillation. The conditions noted are these: guinea pigs, gavage 28 days, D1 41, D2 45, D3 116, D4 116, D5 58, D6 116, D7 233, D8 16 mg/kg. It counts as in vivo. The text has this:
(§1) On the day of modeling, drugs were given by gavage. Each guinea pig was given once a day, and the Placebo group was given equal volume of drug solution every day for 4 weeks, i.e. 28 days.

For test [2] the test system is unchanged. Description: Allergic rhinitis experiment: number and time points of deaths in each group. The conditions noted are these: surviving guinea pigs of 10 in group; D1 41, D2 45, D3 116, D4 116, D5 58, D6 116, D7 233, D8 16 mg/kg. It counts as in vivo.
Description: 100 guinea pigs were divided into 20 cages with 5 guinea pigs in each cage. After 7 days of adaptive growth without abnormalities, 90 guinea pigs were used for the construction and induction of allergic rhinitis model, and the remaining 10 guinea pigs were used for normal control. During the whole experiment, the animals were looked after and treated in strict accordance with the animal ethics law.
as §1

Test [3] concerns eosinophils in nasal lavage solution. Put plainly: Counting of eosinophils in nasal lavage solution. Particulars: guinea pigs. Format: in vivo, guinea pig. As to the method:
(§2) 1) After scoring on the second day after the last administration, guinea pigs were anesthetized by intraperitoneal injection of 10% chloral hydrate with the anesthetic dosage of 0.35 ml/100 g;
2) The guinea pig was fixed in a supine and low head position, the normal saline was slowly dropped into one nasal cavity at the rate of 1 ml/min, and the contralateral nasal cavity was continuously pumped with low negative pressure;
3) A small amount of the recovered lavage solution was taken immediately and put into a leukocyte counting plate to count the total number of leukocytes;
4) The remaining lavage solution was added with EDTA ([…]) and centrifuged at 14000 rpm at 4° C. for 15 minutes. And the supernatant was stored at −80° C. for use.

Test [4] deals with histamine, IgE, IL-4, IFN-γ, thromboxane B2 and leukotriene. Description: Final plasma cytokines of guinea pigs by ELISA. Format: in vivo, guinea pig. On the procedure: as §2
2) The abdominal cavity was opened, and a 5 ml sterile syringe was inserted into the abdominal vein of the guinea pig, and the venous blood was drawn;
3) The drawn venous blood was put into a heparin tube, mixed well, and left in a chromatography freezer at 4° C. overnight.
4) After centrifugation at 14000 rpm at 4° C. for 15 minutes, the supernatant was taken and stored at −80° C. for use.
1.6 The expression levels of cytokines in guinea pig serum and nasal lavage solution were detected by ELISA. The final serum and nasal lavage solution were taken for the determination of histamine, IgE, IL-4, IFN-γ, thromboxane B2 and leukotriene.
1) taking out the ELISA kit from the refrigerator and balancing it at room temperature for 20 min;
3) after sealing the film with a film sealing plate, placing it in a 37° C. incubator for incubation for 30 min;
4) discarding the liquid in the wells, gently spin drying it, and adding 50 μL biotin labeled antibody working solution to each well, and incubating in a 37° C. incubator for 30 min;
5) carefully removing the sealing film, pouring out the liquid in the wells, gently spin drying it, adding washing liquid into each well, standing at room temperature for 30 seconds and then pouring it out, repeating this operation for 5 times and gently patting it dry;
6) adding 50 μL horseradish peroxidase labeled avidin working solution to each well, and incubating in a 37° C. incubator for 30 min;
7) pouring out the liquid in the wells, gently spin drying it, adding washing liquid into each well, standing at room temperature for 30 seconds and then pouring it out, repeating this operation for 5 times and gently patting it dry; and
8) adding 100 μL color developing solution to each well in turn, and developing color in a 37° C. incubator without light for […];
9) adding […] termination solution to each well to terminate the reaction, then zeroing the blank wells and measure the absorbance (OD value) of each well at 450 nm wavelength, where the determination shall be carried out within 15 min after the termination solution is added.
For orientation: In an ELISA, binding on a coated surface is turned into a signal by an enzyme label.

The subject of another test is nasal mucosa. Description: HE staining of final nasal mucosa of guinea pigs. It counts as in vivo, guinea pig. The conditions noted are these: gavage 28 days, D1 41, D2 45, D3 116, D4 116, D5 58, D6 116, D7 233, D8 16 mg/kg. As to the method: as §2
2) After peeling off the nasal skin, the maxilla together with the nasal cavity were removed, and the bilateral nasal cavities were completely separated from the middle incisors;
3) The nasal mucosa was carefully removed and fixed with 4% paraformaldehyde for HE staining;
4) All the HE stained pathological sections were observed under the light microscope.
The mucosal tissues fixed in 4% glutaraldehyde solution were taken out and made into 5 μm thick paraffin sections for HE staining.
1) 60%, 70%, 80% and 90% gradient ethanol of the fixed sample were used to dehydrate for 8 h respectively;
2) 100% ethanol I and II were used to dehydrated for 1 h respectively;
3) The xylene I and II were used to make the specimens transparent for 15 min respectively;
4) The specimens were soaked in liquid paraffin and placed in a 65° C. oven for 2 h;
5) The soaked paraffin specimens were taken out and embedded in paraffin;
6) The paraffin was cut into 5 μm thick sections and subjected to HE staining.
1) Xylene I and II for 15 min respectively;
2) Gradient ethanol hydration to distilled water;
3) Hematoxylin staining for 5 min;
4) Differentiation with 1% hydrochloric acid and ethanol for 1 min; […]

The mark [5] stands for this setting: final plasma, gavage 28 days, D1 41, D2 45, D3 116, D4 116, D5 58, D6 116, D7 233, D8 16 mg/kg.

Consider `CCOC(=O)N1CCC(=C2c3ccc(Cl)cc3CCc3cccnc32)CC1` [D8, Loratadine], for which, in test [1], the “nose scratching times decreased compared with the model group” value is 57.0% and the “sneeze times decreased compared with the model group” value worked out at 54.4%. Also, the “Final scoring of symptom observation” value in test [1] (score 1-3 per Table 2) came to 1.50 ± 0.50. Further, in test [2], the Final number is 8, the “Number after enhanced sensitization” value was 8 and the “Number after nasal instillation” value came out at 8. Further, in test [3] (D1 41, D2 45, D3 116, D4 116, D5 58, D6 116, D7 233, D8 16 mg/kg), the “number of eosinophils in nasal lavage solution decreased compared with the model group” value stood at 52.2%. Further, the “number of eosinophils in nasal lavage solution compared with the model group” value in test [3] (D8 16 mg/kg, p<0.01) is on record as “decreased significantly”. The same compound registered a Number of eosinophils in test [3] (nasal lavage solution, gavage 28 days, D1 41, D2 45, D3 116, D4 116, D5 58, D6 116, D7 233, D8 16 mg/kg) of 3.50 ± 1.12 PCs./ml. In test [4] (setting [5]), the Histamine was found to be 23.78 ± 3.86 ng/mL, the IFN-γ came out at 113.74 ± 12.59 pg/mL, the IL-4 turned out to be 138.64 ± 39.91 pg/mL and the IgE turned out to be 41.86 ± 7.34 ng/mL. Moreover, in test [4] (setting [5]), the LTB4 stood at 32.00 ± 6.71 ng/mL and the TXB2 was determined as 24.86 ± 4.5 ng/mL. In test [4] (p<0.05), the “contents of TXB2 and TLB4 in nasal lavage solution versus model control group” value is “significant difference compared with the model control group”. In addition, the “serum IgE content versus model group” value in test [4] (significantly different from model group (p<0.05)) is “reduce the serum IgE content”. For the same compound, the “pathological analysis of HE stained nasal mucosa” value in the test on nasal mucosa was “the inflammatory reaction in nasal mucosa of guinea pigs was significantly reduced”.
